Test results from US6048865A, “N^6 -substituted-adenosine-5'-uronamides as adenosine receptor modulator” (priority 1998, dated 2000).
Entries after “also recorded” stand apart in the source; their conditions may differ. Where two headings read alike, the source gives them in different places.

How the values were obtained:
[1] = target: T1, rat A3 adenosine receptor (Rattus norvegicus, UniProt P28647); settings: for A1/A3: ratio of Ki (A1) to Ki (A3); for A1/A3 / A2A/A3: rat; for A2A/A3: ratio of Ki (A2A) to Ki (A3); for affinity and selectivity at A3 adenosine receptors: vs. A1 and A2 receptors;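 on all read-outs here: radioligand binding on membrane homogenates, 1 h incubation at 37 °C in duplicate, gamma counting of filter-bound radioactivity, nonspecific binding defined using 200 µM NECA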
T1 sequence (P28647 1-320): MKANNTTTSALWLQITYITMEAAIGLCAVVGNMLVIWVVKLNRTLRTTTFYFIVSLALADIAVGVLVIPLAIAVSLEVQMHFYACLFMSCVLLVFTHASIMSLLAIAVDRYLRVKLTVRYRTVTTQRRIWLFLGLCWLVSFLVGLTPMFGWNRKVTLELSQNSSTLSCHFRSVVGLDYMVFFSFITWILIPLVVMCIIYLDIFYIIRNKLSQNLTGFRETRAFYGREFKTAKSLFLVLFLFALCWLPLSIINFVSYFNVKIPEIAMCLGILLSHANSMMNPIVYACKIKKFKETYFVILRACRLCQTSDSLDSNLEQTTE
Method: (§1) Procedures for preparing rat brain membranes and Chinese hamster ovary (CHO) cell membranes were as reported^30, 38, 44. For binding experients, membrane homogenates were frozen and stored at -20° C. for greater than 2 months. Adenosine deaminase (ADA) was purchased from Boehringer Mannheim (Indianapolis, Ind.).
(§2) Inhibitors were routinely dissolved in DMSO. […] Incubations were carried out in duplicate for 1 h at 37° C., and were terminated by rapid filtration over Whatman GF/B filters using a Brandell cell harvester (Brandell, Gaithersburg, Md.). Tubes were washed three times with 3 mL of buffer. Radioactivity was determined in a Beckman gamma 5500B γ-counter.
(§3) Nonspecific binding was determined in the presence of 200 μM NECA. […] Additional deaminase was not added during incubation with the radioligand.

[2] = target: T2, rat brain A1 adenosine receptor (Rattus norvegicus, UniProt P25099)
T2 sequence (P25099 1-326): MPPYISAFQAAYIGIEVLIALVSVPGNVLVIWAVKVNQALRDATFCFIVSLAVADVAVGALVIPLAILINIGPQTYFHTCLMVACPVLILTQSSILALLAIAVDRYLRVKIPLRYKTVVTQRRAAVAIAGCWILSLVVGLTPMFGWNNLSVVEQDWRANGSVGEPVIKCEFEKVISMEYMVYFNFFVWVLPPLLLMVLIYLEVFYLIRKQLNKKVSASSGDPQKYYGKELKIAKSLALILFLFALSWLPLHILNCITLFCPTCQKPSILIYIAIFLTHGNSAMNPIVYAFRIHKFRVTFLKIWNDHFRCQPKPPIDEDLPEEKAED
Method: (§4) Procedures for preparing rat brain membranes and Chinese hamster ovary (CHO) cell membranes were as reported^30, 38, 44. For binding experients, membrane homogenates were frozen and stored at -20° C. for greater than 2 months.
as §3

[3] = target: T3, rat brain A2A adenosine receptor (Rattus norvegicus, UniProt P30543); experiment: Displacement of specific [3H]CGS 21680 binding in rat striatal membranes
T3 construct: A2A receptors for rat striatal membranes; from tissue; host or cells: rat striatal membranes
Method: For binding experients, membrane homogenates were frozen and stored at -20° C. for greater than 2 months. Adenosine deaminase (ADA) was purchased from Boehringer Mannheim (Indianapolis, Ind.).
as §3

[4] = target: T1, rat A3 adenosine receptor
Method: as §1, §2, §3

[5] = target: T2, rat brain A1 adenosine receptor; experiment: biochemical
Method: as §4, §3

rat A3 receptor = target: T4, rat A3 receptor (Rattus norvegicus, UniProt P28647); experiment: Binding of [35S]GTP-γ-S to rat RBL-2H3 mast cell membranes; assay type: biochemical; settings: for effect on binding of [35S]GTP-γ-S: FIG. 1, rat RBL-2H3 mast cell membranes
T4 sequence (P28647 1-320): T1 sequence (P28647 1-320)
Method: The binding for [^35 S]GTP-y-S (Ameersham, Chicago Ill., specific activity 1275 Ci/mmol) was carried out using rat RBL-2H3 mast cell membranes by the general method of Lorenzen et al.^47 Membranes were suspended in a buffer containing 50 mM Tris, 3 units/mL adenosine deaminase, 100 mM NaCl, and 10 mM MgCl2 (pH 7.4) and a protein concentration of 1 to 10 μg per tube. The membrane suspension was preincubated with […], R-PIA and/or riboflavin in a final volume of 125 μL buffer at 30° C. for 60 min and then transferred to ice for 20 min. [^35 S]GTP-γy-S was added to a final concentration of 0.1 nM in a total volume of 500 μL and the mixture was incubated for 30 min at 30° C. Non-specific binding was determined in the presence of 10 μM GTP-γ-S (Sigma, St. Louis Mo.). Incubation of the reaction mixture was terminated by filtration over a GF/B glass filter using a Brandell cell harvester and washed with the same buffer.
The assay involved the agonist-induced inhibition of binding of guanine nucleotide to rat RBL-2H3 mast cell membranes, which contain a high density of A3 receptors.

A3 receptor = settings: background, cited from earlier work
[6] = target: T5, human A3 adenosine receptor (Homo sapiens, UniProt P0DMS8); experiment: Binding of [125I]-AB-MECA to HEK-293 cells stably expressing the human A3 receptor; settings: read-out: affinity at human A3 adenosine receptors
T5 construct: expressed in transfected cells; host or cells: HEK-293 cells
T5 sequence (P0DMS8 1-318): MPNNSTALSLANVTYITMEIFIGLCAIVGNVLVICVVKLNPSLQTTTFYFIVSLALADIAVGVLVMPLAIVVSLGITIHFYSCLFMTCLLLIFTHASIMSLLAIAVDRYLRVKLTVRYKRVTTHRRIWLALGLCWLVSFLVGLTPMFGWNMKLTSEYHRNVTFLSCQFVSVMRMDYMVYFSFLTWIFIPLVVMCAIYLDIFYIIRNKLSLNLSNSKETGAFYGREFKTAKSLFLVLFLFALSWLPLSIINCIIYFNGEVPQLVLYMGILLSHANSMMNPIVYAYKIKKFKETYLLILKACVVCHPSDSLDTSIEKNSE
Text: Inhibitors were routinely dissolved in DMSO.

[7] = target: T2, rat brain A1 adenosine receptor; experiment: Displacement of specific [3H]R-PIA binding in rat brain (cortical) membranes; settings: read-out: Ki (A1)
Method: as §4, §3

[8] = rat striatal membranes, [3H]CGS 21680, Ki ± SEM, n = 3-6

T3 sequence (P30543 whole entry): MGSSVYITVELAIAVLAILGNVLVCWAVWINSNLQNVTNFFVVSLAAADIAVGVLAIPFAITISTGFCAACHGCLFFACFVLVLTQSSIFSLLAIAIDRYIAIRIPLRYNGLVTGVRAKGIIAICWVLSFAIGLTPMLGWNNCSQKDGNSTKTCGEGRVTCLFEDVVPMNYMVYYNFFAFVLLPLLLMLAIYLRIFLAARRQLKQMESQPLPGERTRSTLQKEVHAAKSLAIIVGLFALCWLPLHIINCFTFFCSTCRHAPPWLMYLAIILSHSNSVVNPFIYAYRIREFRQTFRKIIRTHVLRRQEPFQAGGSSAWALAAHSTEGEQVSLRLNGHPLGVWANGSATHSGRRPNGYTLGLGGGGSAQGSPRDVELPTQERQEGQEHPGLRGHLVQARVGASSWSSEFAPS

| A1/A3 [1] | A2A/A3 [1] | Ki [2] [nM] | Ki [3, 8] [nM] | Ki [4] [nM] | SMILES | also measured |
| --- | --- | --- | --- | --- | --- | --- |
| 0.13 | 0.14 | 761 ± 187 | 799 ± 191 | 5700 ± 100 | CCNC(=O)[C@H]1O[C@@H](n2cnc3c(N(C(=O)Nc4ccc(Cl)cn4)C(=O)Nc4ccc(Cl)cn4)ncnc32)[C@H](O)[C@@H]1O [Compound 3o, N^6-bis-(5-chloro-pyridin-2-yl-carbamoyl)-adenosine-5'-N-ethyluronamide] | – |
| 0.27 | 1.66 | 146 ± 39 | 884 ± 232 | 532 ± 240 | CCNC(=O)[C@H]1O[C@@H](n2cnc3c(NC(=O)Nc4cc(C)on4)ncnc32)[C@H](O)[C@@H]1O [Compound 3k, N^6-(5-methyl-isoxazol-3-yl-carbamoyl)-adenosine-5'-N-ethyluronamide] | – |
| 4.46 | 46.8 | 171 ± 15 | 1790 ± 230 | 38.3 ± 6.4 | CCNC(=O)[C@H]1O[C@@H](n2cnc3c(NC(=O)NCc4ccccc4)ncnc32)[C@H](O)[C@@H]1O [Compound 3f, N^6-(benzylcarbamoylamino)-adenosine-5'-N-ethyluronamide] | – |
| 2.3 | 2.4 | – | – | 107 ± 34 | CCCOc1ccc(NC(=O)Nc2ncnc3c2ncn3[C@@H]2O[C@H](C(=O)NCC)[C@@H](O)[C@H]2O)cc1 [Compound 3m, N^6-(4-n-propoxy-phenylcarbamoyl)-adenosine-5'-N-ethyluronamide] | Ki [1]: 9.7 to 107 nM; affinity and selectivity at A3 adenosine receptors [1]: relatively high affinity and selectivity at A3 adenosine receptors; Ki [5]: 257 ± 43 nM |
| 3.47 | 50.2 | 72.7 ± 11.8 | 1050 ± 270 | 20.9 ± 7.51 | CCNC(=O)[C@H]1O[C@@H](n2cnc3c(NC(=O)Nc4ccc(C(C)=O)cc4)ncnc32)[C@H](O)[C@@H]1O [Compound 3h, N^6-(4-acetyl-phenylcarbamoyl)-adenosine-5'-N-ethyluronamide] | Ki [1]: 9.7 to 107 nM; affinity and selectivity at A3 adenosine receptors [1]: relatively high affinity and selectivity at A3 adenosine receptors |
| – | – | – | – | – | CNC(=O)[C@H]1O[C@@H](n2cnc3c(NCc4cccc(I)c4)nc(Cl)nc32)[C@H](O)[C@@H]1O [Cl-IB-MECA, 2-chloro-N^6-(3-iodobenzyl)adenosine-5'-N-methyluronamide, reference compound] | effect on binding of [35S]GTP-γ-S (rat A3 receptor): increased binding of [^35 S]GTP-γ-S in a dose dependent manner |
| 0.006 | 3.65 | 5.92 ± 1.04 | 3580 ± 850 | 979 ± 22 | CCNC(=O)[C@H]1O[C@@H](n2cnc3c(NC(=O)c4ccc(-c5ccccc5)cc4)ncnc32)[C@H](O)[C@@H]1O [Compound 3a] | – |
| 26.5 | 17.1 | 433 ± 171 | 279 ± 171 | 16.3 ± 3.7 | CCNC(=O)[C@H]1O[C@@H](n2cnc3c(NC(=O)N[C@H](C)c4ccccc4)ncnc32)[C@H](O)[C@@H]1O [Compound 3i, N^6-((R)-α-phenylethylcarbamoyl)-adenosine-5'-N-ethyluronamide] | – |
| – | – | – | – | – | CNC(=O)[C@H]1O[C@@H](n2cnc3c(NCc4ccc(N)c(I)c4)ncnc32)[C@H](O)[C@@H]1O [I-AB-MECA, N^6-(4-amino-3-iodobenzyl)adenosine-5'-N-methyluronamide, reference compound] | effect on binding of [35S]GTP-γ-S (rat A3 receptor): increased binding of [^35 S]GTP-γ-S in a dose dependent manner |
| – | – | – | – | – | CNC(=O)[C@H]1O[C@@H](n2cnc3c(NCc4cccc(I)c4)ncnc32)[C@H](O)[C@@H]1O [IB-MECA, N^6-(3-iodobenzyl)adenosine-5'-N-methyluronamide] | behavioral effect (A3 receptor): induces behavioral depression; protection against cerebral ischemia (A3 receptor; chronic administration): protects against cerebral ischemia |
| 46.5 | 121.2 | 453 ± 141 | 1180 ± 360 | 9.73 ± 0.75 | CCNC(=O)[C@H]1O[C@@H](n2cnc3c(NC(=O)Nc4ccc(S(N)(=O)=O)cc4)ncnc32)[C@H](O)[C@@H]1O [Compound 3g, N^6-(4-sulfonamido-phenylcarbamoyl)-adenosine-5'-N-ethyluronamide] | effect on binding of [35S]GTP-γ-S (rat A3 receptor): about as effective as the potent A3 agonists I-AB-MECA and Cl-IB-MECA; also recorded: greater potency than NECA; also recorded: increased binding of [^35 S]GTP-γ-S in a dose dependent manner; agonism at rat A3 receptor (rat A3 receptor; functional assay, rat RBL-2H3 mast cell membranes): full agonist; Ki [1]: 9.7 to 107 nM; Ki ([1]; read-out: affinity at A3 receptors, rat A3, running text): 9.7 nM; Ki [6]: 56.1 ± 9.1 nM |
| 0.037 | 0.16 | 208 ± 42 | 917 ± 254 | 5550 ± 2800 | CCNC(=O)[C@H]1O[C@@H](n2cnc3c(NC(=O)Nc4nncs4)ncnc32)[C@H](O)[C@@H]1O [Compound 3l, N^6-(1,3,4-thiadiazol-2-yl-carbamoyl)-adenosine-5'-N-ethyluronamide] | – |
| 0.10 | 0.28 | 86.4 ± 14.2 | 237 ± 46 | 837 ± 142 | CCNC(=O)[C@H]1O[C@@H](n2cnc3c(NC(=O)c4ccc(OC)cc4)ncnc32)[C@H](O)[C@@H]1O [Compound 3c] | – |
| 0.095 | 0.16 | 16 ± 3.3 | – | 167 ± 7 | CCNC(=O)[C@H]1O[C@@H](n2cnc3c(NC(=O)Cc4ccc(Cl)cc4Cl)ncnc32)[C@H](O)[C@@H]1O [Compound 3b, N^6-(2,4-dichlorobenzyl-carbonylamino)-adenosine-5'-N-ethyluronamide] | Ki [3]: 26.6 ± 8.8 nM |
| 0.30 | 0.81 | 252 ± 52 | 670 ± 211 | 824 ± 126 | CCNC(=O)[C@H]1O[C@@H](n2cnc3c(NC(=O)c4ccccc4)ncnc32)[C@H](O)[C@@H]1O [Compound 3e] | – |
| 1.68 | 9.3 | 537 ± 33 | 2970 ± 930 | 319 ± 134 | CCNC(=O)[C@H]1O[C@@H](n2cnc3c(NC(=O)N[C@@H](C)c4ccccc4)ncnc32)[C@H](O)[C@@H]1O [Compound 3j, N^6-((S)-α-phenylethylcarbamoyl)-adenosine-5'-N-ethyluronamide] | affinity and selectivity at A3 adenosine receptors [1]: relatively high affinity and selectivity at A3 adenosine receptors |

| SMILES | A1/A3 [1] | A2A/A3 [1] | Ki [2] [nM] | Ki [3, 8] [nM] | Ki [4] [nM] | also measured |
| --- | --- | --- | --- | --- | --- | --- |
| CCNC(=O)[C@H]1O[C@@H](n2cnc3c(NNC(=O)c4ccc(Cl)cc4)ncnc32)[C@H](O)[C@@H]1O [Compound 3d, N^6-(4-chlorophenyl-carbonylamino)-adenosine-5'-N-ethyluronamide] | 1.55 | 2.59 | – | – | – | Ki [7]: 1170 ± 220 nM; Ki ([1]; read-out: Ki (A3)): 754 ± 132 nM; Ki [3]: 1960 ± 300 nM |
| CCNC(=O)[C@H]1O[C@@H](n2cnc3c(N(C(=O)Nc4ccc([N+](=O)[O-])cc4)C(=O)Nc4ccc([N+](=O)[O-])cc4)ncnc32)[C@H](O)[C@@H]1O [Compound 3n, N^6-bis-(4-nitrophenylcarbamoyl)-adenosine-5'-N-ethyluronamide] | – | – | – | 2530 ± 200 | – | Ki [7]: 89.1 ± 8.8 nM |
